Measured values published in publication PMC11714206, “Massively Parallel Screening of Toll/Interleukin‐1 Receptor (TIR)‐Derived Peptides Reveals Multiple Toll‐Like Receptors (TLRs)‐Targeting Immunomodulatory Peptides” (Advanced Science, 2024).

Target: T1, MAL^TIR (Homo sapiens, UniProt P58753)
T1 construct: MAL (residues 79–221); 6xHis; made in house; host or cells: E. coli BL21 (DE3)
Experiment: T‐Surf phage library (P8 and P3) selection against MAL^TIR, four rounds, NGS read counts
Assay type: binding
Conditions: for Population: 4th round of selection against MAL TIR, share of NGS reads; for P8_MAL Rank (after) / P8_MAL Rank (before): P8 library; for P3_MAL Rank (after) / P3_MAL Rank (before): P3 library
Method in brief: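 Read counts come from NGS of phage pools enriched over four selection rounds on the plate‐coated TIR domain (5 µg mL^−1). Each round: 1 h phage binding at room temperature after 0.2% BSA blocking, Tween washes, acid elution, amplification in E. coli TG1 with M13KO7 helper.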

[1] = P3_MAL pool: P3 T-Surf phage library
[2] = selection against MAL TIR, rank by count after grouping
[3] = selection against MAL TIR, rank by count before grouping
[4] = P8_MAL: rank by count after grouping
[5] = P8_MAL: rank by count before grouping
[6] = P8_MAL pool: P8 T-Surf phage library
[7] = 4R selection against MAL, rank after grouping
[8] = 4R selection against MAL, rank before grouping
[9] = P3_MAL: rank by count after grouping
[10] = P3_MAL: rank by count before grouping
[11] = selection against MAL, rank by count after grouping
[12] = selection against MAL, rank by count before grouping
[13] = selection against MAL, rank after grouping
[14] = selection against MAL, rank before grouping

T1 sequence (P58753 79-221): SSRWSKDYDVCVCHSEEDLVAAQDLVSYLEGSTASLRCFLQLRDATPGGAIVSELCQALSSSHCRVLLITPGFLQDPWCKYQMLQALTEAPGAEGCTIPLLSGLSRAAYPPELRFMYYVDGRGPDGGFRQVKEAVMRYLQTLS

## YAFTGHLHRYLVRRGV
[1]
  Population: 0.00338%

## WFYEPLVSLILRDTKL
[2]
  P8_MAL Rank (after): 236
[3]
  P8_MAL Rank (before): 1293

## AFCWAQLKSVLGNPTR
[4]
  Rank (after): 123
[5]
  Rank (before): 1781

## LFFWERLKQLLRSDCR
[4]
  Rank (after): 100
[5]
  Rank (before): 2072

## AFLYTFLINLTHPSNF
[6]
  Population: 0.00309%

## PLLYTFLINLTHPTNF
[4]
  Rank (after): 104
[5]
  Rank (before): 2327

## KQWLNAPTAAANLSGW
[7]
  P3_MAL Rank (after): 664
[8]
  P3_MAL Rank (before): 3635

## RNFVAYLVQALAKKGI
[4]
  Rank (after): 160
[5]
  Rank (before): 2225

## YAFTGHLQRYLLQRGV
[9]
  Rank (after): 188
[10]
  Rank (before): 1460

## LVAHAISKKMKLFATI
[9]
  Rank (after): 411
[10]
  Rank (before): 2093

## AFLYNFLLNLTHKPTF
[7]
  P8_MAL Rank (after): 671
[8]
  P8_MAL Rank (before): 1891

## LFFYESLKHLLRIDCR
[7]
  P8_MAL Rank (after): 646
[8]
  P8_MAL Rank (before): 2170

## RNYVAYLFQALANTGI
[7]
  P8_MAL Rank (after): 579
[8]
  P8_MAL Rank (before): 2250

## YAFTGHLHRYLVQRAL
[1]
  Population: 0.00451%
[9]
  Rank (after): 104
[10]
  Rank (before): 149

## QLIQQWSELHLHQLQL
[4]
  Rank (after): 443
[5]
  Rank (before): 2381

## FLNFRGLGGRNYFLGH
[7]
  P3_MAL Rank (after): 628
[8]
  P3_MAL Rank (before): 1147

## WFLTAFRVAMEQVADT
[7]
  P8_MAL Rank (after): 662
[8]
  P8_MAL Rank (before): 1359

## NQWRNELNAAANLSGW
[2]
  P3_MAL Rank (after): 255
[3]
  P3_MAL Rank (before): 3406

## AFFWPQLKSMLRNTTV
[4]
  Rank (after): 418
[5]
  Rank (before): 1716

## WFYVRLVILALRDNNM
[11]
  P8_MAL Rank (after): 690
[12]
  P8_MAL Rank (before): 1128

## RSFRDRLWRHLQLNEK
[13]
  P3_MAL Rank (after): 506
[14]
  P3_MAL Rank (before): 2575

## DWFLSKLNQHLLKREK
[9]
  Rank (after): 424
[10]
  Rank (before): 1898

## PYLRTQVLNYLMRTKN
[13]
  P3_MAL Rank (after): 499
[14]
  P3_MAL Rank (before): 2630

## NQWRNTLTAAANLSGW
[1]
  Population: 0.00376%

## LFFWESLKPLPRRDGR
[4]
  Rank (after): 467
[5]
  Rank (before): 2088

## RLLKWKDALYEAANLS
[9]
  Rank (after): 110
[10]
  Rank (before): 342

## WFYERRVSLILLLTIV
[11]
  P8_MAL Rank (after): 684
[12]
  P8_MAL Rank (before): 1253

## YFLHFLLFSRPNRVY
[4]
  Rank (after): 438
[5]
  Rank (before): 1488

## NQWRNALTAAANLRGR
[9]
  Rank (after): 145
[10]
  Rank (before): 3369

## REFIKKIILWMNPKIV
[4]
  Rank (after): 109
[5]
  Rank (before): 2531

## TFLGHLYNTLVQASIF
[4]
  Rank (after): 391
[5]
  Rank (before): 2537

## AFLYTFDQSDPSDQF
[13]
  P8_MAL Rank (after): 509
[14]
  P8_MAL Rank (before): 1822

## TFLCHQYNALVQAGIH
[2]
  P8_MAL Rank (after): 219
[3]
  P8_MAL Rank (before): 2547

## LFFWESLKQLLRAMA
[4]
  Rank (after): 473
[5]
  Rank (before): 2095

## YAFTGHLNRSLVQRGV
[2]
  P3_MAL Rank (after): 199
[3]
  P3_MAL Rank (before): 1440

## NQWRNALTAAANLSGR
[1]
  Population: 0.00564%

## RGFLAICVIICRRKI
[9]
  Rank (after): 390
[10]
  Rank (before): 2406

## DFLSHLIEAFSRMHIN
[13]
  P8_MAL Rank (after): 504
[14]
  P8_MAL Rank (before): 1972

## SSFRDGLWRLLELRKK
[2]
  P3_MAL Rank (after): 269
[3]
  P3_MAL Rank (before): 3129

## LFFWESLKQLLRSDG
[4]
  Rank (after): 178
[5]
  Rank (before): 2104

## TFLGNLYNPLVQAGLH
[13]
  P8_MAL Rank (after): 521
[14]
  P8_MAL Rank (before): 2615

## YAFTGHPHRYLVQRGV
[1]
  Population: 0.00564%

## FMSHLRHHLQAKDH
[9]
  Rank (after): 166
[10]
  Rank (before): 709

## RNFVAYLFQALANTSI
[7]
  P8_MAL Rank (after): 585
[8]
  P8_MAL Rank (before): 2212

## SICREGLWRLLELSKK
[2]
  P3_MAL Rank (after): 284
[3]
  P3_MAL Rank (before): 3117

## RNFGNSCVPCWANRR
[4]
  Rank (after): 392
[5]
  Rank (before): 2239

## RNFGVYLFQALANKGI
[4]
  Rank (after): 409
[5]
  Rank (before): 2238

## ALLYTFLINLTHPTNF
[6]
  Population: 0.0034%

## LFFWKSLKQLLRSDSR
[4]
  Rank (after): 124
[5]
  Rank (before): 2128

## PNLRTKVPNYPMLTKT
[7]
  P3_MAL Rank (after): 640
[8]
  P3_MAL Rank (before): 2680

## RAFVAHLYEALKKRAN
[13]
  P3_MAL Rank (after): 547
[14]
  P3_MAL Rank (before): 2451

## YAFKGNLHRYLVQRGV
[9]
  Rank (after): 162
[10]
  Rank (before): 1483
